From US20090264415A2 (priority 2004, published 2009)
Like-named read-outs stand apart in the source and are kept apart here.

What was measured:
[1] = test system: production of human TNF-α by PBMC in response to LPS; experiment: TNF-α assay (LPS-stimulated PBMC, sandwich ELISA); type: cell-based; conditions: LPS 1 μg/ml, 72 hours, read-out: TNF α
Method in brief: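 Human PBMC isolated from heparinised blood by density gradient (10^6 cells/ml) stimulated with LPS at 1 μg/ml final, with test compound at 0.1, 1 and 10 μM, 72 h at 37° C, 5% CO2. Supernatant TNF-α quantified by sandwich ELISA against recombinant standard curve; % suppression calculated.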

[2] = test system: phosphodiesterase-4 (PDE-4) extract from U937 cells; experiment: Phosphodiesterase-4 inhibiting activity (isotopic two-step method); type: biochemical; conditions: for IC50: 1.01 μM [3H]cAMP+cAMP
[3] = test system: peripheral blood mononuclear cells (PBMC) stimulated with allogeneic PBMC or EBV-transformed human B cells (RPMI1788); experiment: Mixed lymphocyte reaction (MLR) assay; type: cell-based; conditions: 50% suppression of the MLR, [3H]-thymidine incorporation, read-out: MLR
Method in brief: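 Responder PBMC co-cultured in triplicate with 30 Gy-irradiated allogeneic PBMC or RPMI1788 B cells plus compound (DMSO stock 10 mM, diluted in medium). After 5 days at 37° C, 1 μCi [3H]-thymidine added for 16 h more; incorporated cpm counted and proliferation inhibition calculated.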

SMILES | IC50 [1] | IC50 [3] | PDE-4 (% inhibition) ([2]; @ 10 μM) | further results
COc1ccc(-c2ccc3ncnc(N4CCN(C(=O)Nc5cccc(C)c5)CC4)c3n2)cc1OC [Example 8] |  |  |  | IC50 ([1]; Homo sapiens, PBMC): 70 nM; IC50 [2]: 16 nM; IC50 ([3]; Homo sapiens, RPMI-1788): 9.4 nM
COc1ccc(-c2ccc3nc(C)nc(N4CCN(C(=O)Nc5cccc(C)c5)CC4)c3n2)cc1OC [Example 11] | 500 nM | 26 nM |  | PDE-4 (% inhibition) ([2]; @ 0.5 μM): 69% @ 0.5 μM
COc1ccc(-c2ccc3nc(N)nc(OC(C)C)c3n2)cc1OC [Example 24, 2-amino-4-isopropoxy-6-(3,4-dimethoxyphenyl)pyrido[3,2-d]pyrimidine] |  |  |  | IC50 ([1]; Homo sapiens, PBMC): 500 nM; PDE-4 (% inhibition) ([2]; @ 0.5 μM): 29% @ 0.5 μM; IC50 ([3]; Homo sapiens, RPMI-1788): 66 nM
CCOC(=O)C1CCN(c2nc(N)nc3ccc(-c4ccc(OC)c(OC)c4)nc23)CC1 [Example 26, 2-amino-4-[4-(ethoxycarbonyl)piperidin-1-yl]-6-(3,4-dimethoxyphenyl)pyrido[3,2-d]pyrimidine] |  |  |  | IC50 ([1]; Homo sapiens, PBMC): 60 nM; IC50 [2]: 250 nM; IC50 ([3]; Homo sapiens, RPMI-1788): 2600 nM
COc1ccc(-c2ccc3nc(N)nc(N4CCN(c5ccc(F)cc5)CC4)c3n2)cc1OC [Example 43, 2-amino-4-(4-fluorophenyl-piperazin-1-yl)-6-(3,4-dimethoxyphenyl)-pyrido[3,2-d]pyrimidine] | 90 nM | 300 nM |  | PDE-4 (% inhibition) ([2]; @ 0.09 μM): 61% @ 0.09 μM
COc1ccc(-c2ccc3nc(N)nc(N4CCN(c5ccccn5)CC4)c3n2)cc1OC [Example 47, 2-amino-4-(2-pyridyl-piperazin-1-yl)-6-(3,4-dimethoxyphenyl)-pyrido[3,2-d]pyrimidine] | 50 nM | 300 nM |  | PDE-4 (% inhibition) ([2]; @ 0.05 μM): 64% @ 0.05 μM
COc1ccc(-c2ccc3nc(N)nc(N4CCN(CC(=O)Nc5nccs5)CC4)c3n2)cc1OC [Example 48, 2-amino-4-[2-(piperazin-1-yl)-acetic acid N-(2-thiazolyl)-amide]-6-(3,4-dimethoxyphenyl)-pyrido[3,2-d]pyrimidine] | 60 nM | 60 nM |  | PDE-4 (% inhibition) ([2]; @ 0.06 μM): 59% @ 0.06 μM
COc1ccc(-c2ccc3nc(N)nc(N4CCN(C(C)=O)CC4)c3n2)cc1OC [Example 49, 2-amino-4-(N-acetyl-piperazinyl)-6-(3,4-dimethoxyphenyl)-pyrido[3,2-d]pyrimidine] | 40 nM | 70 nM |  | PDE-4 (% inhibition) ([2]; @ 0.04 μM): 48% @ 0.04 μM
COc1ccc(-c2ccc3nc(N)nc(N4CCN(C(=O)Nc5ccsc5)CC4)c3n2)cc1OC [Example 54, 2-amino-4(N-3-thienylcarbamoyl-piperazin-1-yl)-6-(3,4-dimethoxyphenyl)-pyrido[3,2-d]pyrimidine] | 50 nM | 2 nM |  | PDE-4 (% inhibition) ([2]; @ 0.1 μM): 62% @ 0.1 μM
COc1ccc(-c2ccc3nc(N)nc(N4CCN(C(=O)Nc5ccc(F)cc5)CC4)c3n2)cc1OC [Example 56, 2-amino-4(N-4-fluoro-phenyl-carbamoyl-piperazin-1-yl)-6-(3,4-dimethoxy-phenyl)-pyrido[3,2-d]pyrimidine] | 70 nM | 3 nM |  | PDE-4 (% inhibition) ([2]; @ 0.1 μM): 74% @ 0.1 μM
COc1ccc(-c2ccc3nc(N)nc(N4CCN(C(=O)Nc5ccc(F)c(Cl)c5)CC4)c3n2)cc1OC [Example 57, 2-amino-4(N-3-chloro-4-fluoro-phenyl-carbamoyl-piperazin-1-yl)-6-(3,4-dimethoxyphenyl)-pyrido[3,2-d]pyrimidine] | 300 nM | 4 nM |  | PDE-4 (% inhibition) ([2]; @ 0.1 μM): 74% @ 0.1 μM
COc1ccc(-c2ccc3nc(N)nc(N4CCN(C(=O)Nc5cccc(Cl)c5)CC4)c3n2)cc1OC [Example 58, 2-amino-4(N-3-chloro-phenyl-carbamoyl-piperazin-1-yl)-6-(3,4-dimethoxy-phenyl)-pyrido[3,2-d]pyrimidine] | 260 nM | 0.4 nM |  | PDE-4 (% inhibition) ([2]; @ 0.1 μM): 75% @ 0.1 μM
COc1ccc(-c2ccc3nc(N)nc(N4CCN(C(=O)COc5ccc(Cl)cc5)CC4)c3n2)cc1OC [Example 59, 2-amino-4-[(N-4-chloro-phenoxy-acetyl)-piperazin-1-yl]-6-(3,4-dimethoxyphenyl)-pyrido[3,2-d]pyrimidine] |  |  |  | IC50 [2]: 34 nM; IC50 ([3]; Homo sapiens, RPMI-1788): 16 nM
COc1ccc(-c2ccc3ncnc(N4CCN(C(=O)Nc5cccc(Cl)c5)CC4)c3n2)cc1Cl [Example 79, 4-[(N-3-chlorophenylcarbamoyl)-piperazin-1-yl]-6-(3-chloro-4-methoxyphenyl)-pyrido[3,2-d]pyrimidine] |  | 300 nM | 67% @ 10 μM | 
O=C(Nc1cccc(Cl)c1)N1CCN(c2ncnc3ccc(-c4ccc5c(c4)OCCO5)nc23)CC1 [Example 80, 4-[(N-3-chlorophenylcarbamoyl)-piperazin-1-yl]-6-(1,4-benzodioxan-6-yl)-pyrido[3,2-d]pyrimidine] |  | 300 nM | 17% @ 10 μM | 
Cc1ccc(-c2ccc3ncnc(N4CCN(C(=O)Nc5cccc(Cl)c5)CC4)c3n2)cc1C [Example 81] |  | 500 nM | 12% @ 10 μM | 
O=C(Nc1cccc(Cl)c1)N1CCN(c2ncnc3ccc(-c4ccc5c(c4)OCO5)nc23)CC1 [Example 82, 4-[(N-3-chlorophenylcarbamoyl)-piperazin-1-yl]-6-(3,4-methylenedioxy)phenyl-pyrido[3,2-d]pyrimidine] |  | 300 nM | 31% @ 10 μM | 
CCOc1ccc(-c2ccc3ncnc(N4CCN(C(=O)Nc5cccc(Cl)c5)CC4)c3n2)cc1Cl [Example 83] |  | 500 nM | 49% @ 10 μM | 
O=C(Nc1cccc(Cl)c1)N1CCN(c2ncnc3ccc(-c4ccc(Cl)c(Cl)c4)nc23)CC1 [Example 84] |  | 700 nM | 22% @ 10 μM | 
COc1ccc(-c2ccc3ncnc(N4CCN(C(=O)Nc5ccc(F)c(Cl)c5)CC4)c3n2)cc1OC [Example 108, 4-[(N-3-chloro-4-fluorophenylcarbamoyl)-piperazin-1-yl]-6-(3,4-dimethoxy-phenyl)-pyrido[3,2-d]pyrimidine] | 200 nM | 60 nM |  | PDE-4 (% inhibition) ([2]; @ 0.2 μM): 59% @ 0.2 μM
COc1ccc(-c2ccc3ncnc(N4CCN(C(=O)Nc5cccs5)CC4)c3n2)cc1OC [Example 109] | 130 nM | 60 nM |  | PDE-4 (% inhibition) ([2]; @ 0.09 μM): 58% @ 0.09 μM
COc1ccc(-c2ccc3ncnc(N4CCN(C(=O)COc5ccc(Cl)cc5)CC4)c3n2)cc1OC [Example 113, 4-[(N-4-chlorophenoxy-acetyl)-piperazin-1-yl]-6-(3,4-dimethoxyphenyl)-pyrido[3,2-d]pyrimidine] | 300 nM | 40 nM |  | PDE-4 (% inhibition) ([2]; @ 0.4 μM): 77% @ 0.4 μM
COc1cc(-c2ccc3ncnc(N4CCN(C(=O)Nc5cccc(Cl)c5)CC4)c3n2)ccc1OC(C)C [Example 121] |  | 300 nM | 54% 10 μM | 
Nc1nc(N2CCN(C(=O)COc3ccc(Cl)cc3)CC2)c2nc(-c3ccc(F)cc3)ccc2n1 [Example 207, 2-amino-4-[(N-4-chloro-phenoxy-acetyl)-piperazin-1-yl]-6-(4-fluorophenyl)-pyrido[3,2-d]pyrimidine] |  | 30 nM | 34% @ 10 μM | 
COc1cc(-c2ccc3ncnc(N4CCN(C(=O)Nc5cccc(Cl)c5)CC4)c3n2)ccc1OCC1CC1 [Example 211, 4-[N-(3-chloro-phenylcarbamoyl)-piperazin-1-yl]-6-(3-methoxy-4-cyclopropylmethoxy-phenyl)-pyrido[3,2-d]pyrimidine] |  | 400 nM | 16% @ 10 μM | 
